Laboratory results as given in US20050191315A1 (priority 2002, published 2005).

Columns and labels:
Type in all cases: cell-based, human
[1] = test system: SEA transcytosis across T-84 cell monolayers
[2] = test system: SEE transcytosis across T-84 cell monolayers
[3] = test system: TSST-1 transcytosis across T-84 cell monolayers
[4] = test system: SEB transcytosis across T-84 cell monolayers

KKKVTAQELD [SEB 152-161]
transcytosis of SEA reduced [1]: 73% | transcytosis of SEE reduced [2]: 68% | transcytosis of TSST-1 reduced [3]: 59% | movement of SEB across the monolayers reduced by [4]: 85%
